Assay results as given in US10758534B2 (Vertex Pharmaceuticals Incorporated, priority 2014, dated 2020).

Biological target: T1, F508del (Homo sapiens, UniProt P13569, DEL508-508)
T1 construct: expressed in transfected cells
Assay: Protocol 1: membrane potential optical assay (FLIPR III, voltage sensing dye), identification of potentiator compounds
Assay type: cell-based
Conditions: Table 3, compounds of Table 1
Summary of the method: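 Gating potentiation is read as a membrane-potential fluorescence change (FLIPR III, voltage-sensing dye) after one forskolin addition under a Cl− gradient, with gluconate replacing chloride, pH 7.4. Cells are F508del-expressing NIH3T3 mouse fibroblasts held 24 h at 27 °C and exposed to compound before dye loading.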

T1 sequence (P13569 with tags, fused parts or gaps DEL508-508): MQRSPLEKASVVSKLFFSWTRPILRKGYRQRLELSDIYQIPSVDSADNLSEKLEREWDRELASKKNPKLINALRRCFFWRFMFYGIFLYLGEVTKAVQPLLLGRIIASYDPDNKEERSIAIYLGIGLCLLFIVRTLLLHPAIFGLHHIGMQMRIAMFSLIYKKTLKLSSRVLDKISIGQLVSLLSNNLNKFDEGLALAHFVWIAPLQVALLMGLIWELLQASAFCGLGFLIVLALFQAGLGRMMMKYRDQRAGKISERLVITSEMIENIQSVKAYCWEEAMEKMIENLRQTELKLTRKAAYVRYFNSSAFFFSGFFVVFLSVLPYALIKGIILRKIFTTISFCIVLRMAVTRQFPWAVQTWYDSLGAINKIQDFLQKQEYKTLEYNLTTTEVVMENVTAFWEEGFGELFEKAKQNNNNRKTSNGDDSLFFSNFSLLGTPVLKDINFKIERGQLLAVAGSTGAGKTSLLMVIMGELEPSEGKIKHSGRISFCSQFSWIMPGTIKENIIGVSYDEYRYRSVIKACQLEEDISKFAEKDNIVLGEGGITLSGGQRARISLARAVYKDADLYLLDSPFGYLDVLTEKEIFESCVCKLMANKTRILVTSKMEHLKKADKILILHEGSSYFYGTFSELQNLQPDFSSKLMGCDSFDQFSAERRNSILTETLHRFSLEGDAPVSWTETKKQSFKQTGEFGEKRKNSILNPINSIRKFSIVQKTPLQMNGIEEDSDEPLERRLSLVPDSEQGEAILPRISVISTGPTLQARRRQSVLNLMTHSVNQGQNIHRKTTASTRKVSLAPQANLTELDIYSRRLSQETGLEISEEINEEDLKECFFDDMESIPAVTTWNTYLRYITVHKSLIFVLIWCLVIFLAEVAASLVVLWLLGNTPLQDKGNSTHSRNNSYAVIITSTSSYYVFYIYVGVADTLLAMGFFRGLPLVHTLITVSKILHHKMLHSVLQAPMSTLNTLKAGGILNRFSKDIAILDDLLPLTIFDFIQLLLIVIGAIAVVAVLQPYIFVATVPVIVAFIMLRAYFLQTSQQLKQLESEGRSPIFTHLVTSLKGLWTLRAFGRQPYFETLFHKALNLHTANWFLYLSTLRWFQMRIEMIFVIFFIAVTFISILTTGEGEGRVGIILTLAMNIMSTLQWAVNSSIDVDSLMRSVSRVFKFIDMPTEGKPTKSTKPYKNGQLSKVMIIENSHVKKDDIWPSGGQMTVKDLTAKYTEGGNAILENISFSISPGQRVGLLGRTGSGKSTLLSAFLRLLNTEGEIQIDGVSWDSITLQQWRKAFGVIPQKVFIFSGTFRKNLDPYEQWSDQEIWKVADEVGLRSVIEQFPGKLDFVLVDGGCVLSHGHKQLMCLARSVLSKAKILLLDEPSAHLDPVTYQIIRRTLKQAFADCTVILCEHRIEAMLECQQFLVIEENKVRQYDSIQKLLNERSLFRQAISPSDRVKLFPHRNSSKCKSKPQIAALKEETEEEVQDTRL

| Structure (SMILES) | EC30 |
| --- | --- |
| CC(C)COc1cc(F)cc(-c2ccc(C(=O)NS(=O)(=O)c3cccc(N)n3)c(-n3nc(C(C)C)cc3C(C)C)n2)c1 [Compound 1387, N-[(6-amino-2-pyridyl)sulfonyl]-2-(3,5-diisopropylpyrazol-1-yl)-6-(3-fluoro-5-isobutoxy-phenyl)pyridine-3-carboxamide] | +++ (“+++” means <3 uM) |
| C[C@@H]1CN(c2nc(C(C)(C)C)ccc2C(=O)NS(=O)(=O)c2cccc(N)n2)C(C)(C)C1 [Compound 985, N-[(6-amino-2-pyridyl)sulfonyl]-6-tert-butyl-2-[(4S)-2,2,4-trimethylpyrrolidin-1-yl]pyridine-3-carboxamide] | +++ (“+++” means <3 uM) |
| CC(C)COc1ccn(-c2ccc(C(=O)NS(=O)(=O)c3ccc[nH]c3=O)c(N3C[C@@H](C)CC3(C)C)n2)n1 [Compound 1896, 6-(3-isobutoxypyrazol-1-yl)-N-[(2-oxo-1H-pyridin-3-yl)sulfonyl]-2-[(4S)-2,2,4-trimethylpyrrolidin-1-yl]pyridine-3-carboxamide] | +++ (“+++” means <3 uM) |
| CCC1CCN(c2nc(-c3cc(F)cc(OCC(C)C)c3)ccc2C(=O)NS(=O)(=O)c2cccc(N)n2)C1 (stereo not drawn) [Compound 931, N-[(6-amino-2-pyridyl)sulfonyl]-2-(3-ethylpyrrolidin-1-yl)-6-(3-fluoro-5-isobutoxy-phenyl)pyridine-3-carboxamide] | +++ (“+++” means <3 uM) |
| Cc1cc(C)c(CN2C(C(=O)NS(=O)(=O)c3ccc[nH]c3=O)c3ccccc3C2(C)C)c(C)c1 (stereo not drawn) [Compound 1085, 3,3-dimethyl-N-[(2-oxo-1H-pyridin-3-yl)sulfonyl]-2-[(2,4,6-trimethylphenyl)methyl]isoindoline-1-carboxamide] | +++ (“+++” means <3 uM) |
| Cc1cc(OCC(C)C)ncc1-c1ccc(C(=O)NS(=O)(=O)c2cccc(N)n2)c(N2CC(C)CC2(C)C)n1 (stereo not drawn) [Compound 851, N-[(6-amino-2-pyridyl)sulfonyl]-6-(6-isobutoxy-4-methyl-3-pyridyl)-2-(2,2,4-trimethylpyrrolidin-1-yl)pyridine-3-carboxamide] | +++ (“+++” means <3 uM) |
| Cc1cc(C)c(Oc2nc(C(F)(F)C(F)(F)F)ccc2C(=O)NS(=O)(=O)c2cccc(N)n2)c(C)c1 [Compound 853, N-[(6-amino-2-pyridyl)sulfonyl]-6-(1,1,2,2,2-pentafluoroethyl)-2-(2,4,6-trimethylphenoxy)pyridine-3-carboxamide] | +++ (“+++” means <3 uM) |
| CC1(C)CN(c2nccc(C(F)(F)F)c2C(=O)NS(=O)(=O)c2cccc(N)n2)C(C)(C)C1 [Compound 1658, N-[(6-amino-2-pyridyl)sulfonyl]-2-(2,2,4,4-tetramethylpyrrolidin-1-yl)-4-(trifluoromethyl)pyridine-3-carboxamide] | ++ (“++” means between 3 uM and 10 uM) |
| COCCOCc1cccc(-c2cnc(N3CC(C)CC3(C)C)c(C(=O)NS(=O)(=O)c3cccc(N)n3)c2)c1 (stereo not drawn) [Compound 1943, N-[(6-amino-2-pyridyl)sulfonyl]-5-[3-(2-methoxyethoxymethyl)phenyl]-2-(2,2,4-trimethylpyrrolidin-1-yl)pyridine-3-carboxamide] | ++ (“++” means between 3 uM and 10 uM) |
| COc1ncc(-c2ccc(C(=O)NS(=O)(=O)c3cc[nH]n3)c(Oc3c(C)cc(C)cc3C)n2)cc1C [Compound 1044, 6-(6-methoxy-5-methyl-3-pyridyl)-N-(1H-pyrazol-3-ylsulfonyl)-2-(2,4,6-trimethylphenoxy)pyridine-3-carboxamide] | +++ (“+++” means <3 uM) |
| CCCC/C=C/c1cc(C(=O)NS(=O)(=O)c2cccc(N)n2)c(N2C[C@@H](C)CC2(C)C)nc1C(C)(C)C [Compound 1377, N-[(6-amino-2-pyridyl)sulfonyl]-6-tert-butyl-5-[(E)-hex-1-enyl]-2-[(4S)-2,2,4-trimethylpyrrolidin-1-yl]pyridine-3-carboxamide] | +++ (“+++” means <3 uM) |
| Cc1cc(C)c(Oc2nc(-c3cc(F)cc(F)c3)ccc2C(=O)NS(=O)(=O)c2ccc[nH]c2=O)c(C)c1 [Compound 815, 6-(3,5-difluorophenyl)-N-[(2-oxo-1H-pyridin-3-yl)sulfonyl]-2-(2,4,6-trimethylphenoxy)pyridine-3-carboxamide] | ++ (“++” means between 3 uM and 10 uM) |
| CC(C)COc1cc(F)cc(-c2ccc(C(=O)NS(=O)(=O)c3ccn[nH]3)c(N3CCCC(F)C3)n2)c1 (stereo not drawn) [Compound 878, 6-(3-fluoro-5-isobutoxy-phenyl)-2-(3-fluoro-1-piperidyl)-N-(1H-pyrazol-5-ylsulfonyl)pyridine-3-carboxamide] | ++ (“++” means between 3 uM and 10 uM) |
| CC(C)COc1cc(F)cc(-c2ccc(C(=O)NS(=O)(=O)c3cccc(N)n3)c(N3CCC[C@H]3c3ccccc3)n2)c1 [Compound 1260, N-[(6-amino-2-pyridyl)sulfonyl]-6-(3-fluoro-5-isobutoxy-phenyl)-2-[(2S)-2-phenylpyrrolidin-1-yl]pyridine-3-carboxamide] | +++ (“+++” means <3 uM) |
| CC1CN(c2ncccc2C(=O)NS(=O)(=O)c2cccc(Oc3cccc(C(C)(C)C)c3)n2)C(C)(C)C1 (stereo not drawn) [Compound 1926, N—[[6-(3-tert-butylphenoxy)-2-pyridyl]sulfonyl]-2-(2,2,4-trimethylpyrrolidin-1-yl)pyridine-3-carboxamide] | +++ (“+++” means <3 uM) |
| Cc1cc(C)c(Oc2nc(C(C)C)ccc2C(=O)NS(=O)(=O)c2cccc(N)n2)c(C)c1 [Compound 1232, N-[(6-amino-2-pyridyl)sulfonyl]-6-isopropyl-2-(2,4,6-trimethylphenoxy)pyridine-3-carboxamide] | +++ (“+++” means <3 uM) |
| CC1CN(c2ncccc2C(=O)NS(=O)(=O)c2cccc(OCCC3CCCCC3)n2)C(C)(C)C1 (stereo not drawn) [Compound 1800, N—[[6-(2-cyclohexylethoxy)-2-pyridyl]sulfonyl]-2-(2,2,4-trimethylpyrrolidin-1-yl)pyridine-3-carboxamide] | +++ (“+++” means <3 uM) |
| Cc1cc(C)c(Oc2nc(-c3cc(F)ccc3F)ccc2C(=O)NS(=O)(=O)c2cccc(N)n2)c(C)c1 [Compound 803, N-[(6-amino-2-pyridyl)sulfonyl]-6-(2,5-difluorophenyl)-2-(2,4,6-trimethylphenoxy)pyridine-3-carboxamide] | +++ (“+++” means <3 uM) |
| Cc1cc(C)c(Oc2nc(C3=CCOCC3)ccc2C(=O)NS(=O)(=O)c2cccc(N)n2)c(C)c1 [Compound 976, N-[(6-amino-2-pyridyl)sulfonyl]-6-(3,6-dihydro-2H-pyran-4-yl)-2-(2,4,6-trimethylphenoxy)pyridine-3-carboxamide] | ++ (“++” means between 3 uM and 10 uM) |
| CC1CCN(c2nc3c(cc2C(=O)NS(=O)(=O)c2ccc[nH]c2=O)CCCC3(C)C)CC1 [Compound 1195, 8,8-dimethyl-2-(4-methyl-1-piperidyl)-N-[(2-oxo-1H-pyridin-3-yl)sulfonyl]-6,7-dihydro-5H-quinoline-3-carboxamide] | + (“+” means greater than 10 uM) |
| CCOc1cccc2c1CN(Cc1c(C)cc(C)cc1C)C2(C)C(=O)NS(=O)(=O)c1cccc(NC(=O)C(F)(F)F)n1 (stereo not drawn) [Compound 1616, 4-ethoxy-1-methyl-N-[[6-[(2,2,2-trifluoroacetyl)amino]-2-pyridyl]sulfonyl]-2-[(2,4,6-trimethylphenyl)methyl]isoindoline-1-carboxamide] | +++ (“+++” means <3 uM) |
